Holding throughout (type): in vivo
The test system of assay [1] is Heliothis virescens (tobacco budworm - larvae). Nature of the assay: Mortality test on Heliothis virescens (HV), residual. The note with it: 72 h, read-out: HV grading of mortality; for mortality at 100 ppm: rate 100 ppm. The protocol:
(§1) The activity of the Product was determined using a variety of insect pests. The Product was used in the form of liquid preparations containing from 100 to 500 parts per million (ppm) by weight of the Product. The preparations were made by dissolving the Product in acetone and diluting the solutions with water containing 0.1% by weight of a wetting agent sold under the trade name "SYNPERONIC" NX until the liquid preparations contained the required concentration of the Product. "SYNPERONIC" is a Registered Trade Mark.
(§2) The test procedure adopted with regard to each pest was basically the same and comprised supporting a number of the pests on a medium which was usually a host plant or a foodstuff on which the pests feed, and treating either or both the pests and the medium with the preparations. The mortality of the pests was then assessed at periods usually varying from one to seven days after the treatment.
(§3) The results of the tests are given in Table III for each of the Products, at the rate in parts per million given in the second column, as a grading of mortality designated as A, B or C wherein A indicates 80-100% mortality or knockdown, B indicates 50-79% mortality or knockdown and C indicates less than 50% mortality or knockdown.
(§4) In Table III the pest organism used is designated by a letter code and the pests species, the support medium or food, and the type and duration of test is given in Table II.
(tobacco budworm - larvae)

Assay [2] has as its system Tetranychus urticae (spider mites - ova). Nature of the assay: Mortality test on Tetranychus urticae ova (TUe), contact. To be noted: topical, 144 h, read-out: TUe grading of mortality; for mortality at 100 ppm: rate 100 ppm. The protocol: as §1, §2, §3, §4
In assay [3] the test system is Diabrotica balteata (rootworm larvae). Nature of the assay: Mortality test on Diabrotica balteata (DB), residual. To be noted: 72 h, read-out: DB grading of mortality. The protocol:
as §1, §2, §3, §4

For assay [4], the system named is Blattella germanica (cockroach nymphs). The experiment in a line: Mortality test on Blattella germanica (BG), residual. The note with it: 72 h, read-out: BG grading of mortality. The protocol: as §1, §2, §3, §4
Assay [5] deals with Musca domestica (houseflies - adults). Nature of the assay: Mortality test on Musca domestica (MD), contact. The note with it: topical, 24 h, read-out: MD grading of mortality; for mortality at 100 ppm: rate 100 ppm. The protocol:
as §1, §2, §3, §4

The subject of the next assay is Myzus persicae (aphids). The experiment in a line: Mortality test on Myzus persicae (MP), contact. To be noted: topical, 72 h, read-out: MP grading of mortality; for mortality at 100 ppm: rate 100 ppm. The protocol:
as §1, §2, §3, §4

Assay [6] concerns Spodoptera exigua (lesser army worm - larvae). Nature of the assay: Mortality test on Spodoptera exigua (SP), residual. To be noted: 72 h, read-out: SP grading of mortality. The protocol:
as §1, §2, §3, §4
(lesser army worm - larvae)

In assay [7] the test system is Tetranychus urticae (spider mites - adults). Nature of the assay: Mortality test on Tetranychus urticae adults (TUa), contact. To be noted: topical, 72 h, read-out: TUa grading of mortality; for mortality at 100 ppm: rate 100 ppm. The procedure:
as §1, §2, §3, §4
(spider mites - adults)

Assay [8] deals with Nephotettix cincticeps (green leaf hopper - nymphs). Nature of the assay: Mortality test on Nephotettix cincticeps (NC), contact. The note with it: topical, 72 h, rice plant, 3 days, read-out: NC grading of mortality; for mortality at 100 ppm: rate 100 ppm; for mortality at 500 ppm: rate 500 ppm. The procedure:
as §1, §2, §3, §4
NC Nephotettix cincticeps

Setting [9] is: rate 500 ppm, cotton leaf, residual, 3 days.
[10] abbreviates: rate 500 ppm, French bean leaf, contact, 6 days.
Where [11] appears, read: rate 500 ppm, filter paper/maize seed, residual, 3 days.
[12] abbreviates: rate 500 ppm, plastic pot, residual, 3 days.
Where [13] appears, read: rate 500 ppm, cotton wool/sugar, contact, 1 day.
Where [14] appears, read: rate 500 ppm, Chinese cabbage leaf, contact, 3 days.
Where [15] appears, read: French bean leaf, contact, 6 days.
The mark [16] stands for this setting: French bean leaf, contact, 3 days.
Setting [17] is: cotton wool/sugar, contact, 1 day.
[18] abbreviates: Chinese cabbage leaf, contact, 3 days.
[19] abbreviates: rate 500 ppm, French bean leaf, contact, 3 days.

Each structure is given as a SMILES string. Read-outs that look alike come from different tables or passages of the source.

By mortality is commonly meant the percentage killed. For the compound `CC1(C)C(C(=O)OCc2ccc(F)c(Cc3ccccc3)c2)C1(C)C` [VII], the mortality at 500 ppm was 80 to 100% in assay [1] (setting [9]); less than 50% in assay [2] (setting [10]); 80 to 100% in [3] (setting [11]); 80 to 100% in assay [4] (setting [12]); 80 to 100% in assay [5] (setting [13]); 80 to 100% with Myzus persicae (aphids) (setting [14]). For the same compound, the mortality at 500 ppm in assay [6] (setting [9]) was less than 50%.
In the case of `CC(C)(C)c1ncc(C2C(C(=O)OC(C#N)c3ccc(F)c(Cc4ccccc4)c3)C2(C)C)cn1` (centres unmarked) [XII], the mortality at 500 ppm in [1] (in Gossypium hirsutum) is less than 50%; in assay [2] (in Phaseolus vulgaris), 50 to 79%; in [7] it was 80 to 100%; in [3] (setting [11]), 80 to 100%; in assay [4] (setting [12]), less than 50%; in [5], less than 50%. Further, the values for the mortality at 500 ppm (in the assay with Myzus persicae (aphids) (in Brassica rapa); in [6] (setting [9])) were 50 to 79% and less than 50%, respectively.
For `CC1(C)[C@H](C=C(Cl)Cl)[C@H]1C(=O)OCc1ccc(F)c(Cc2ccccc2)c1` (relative stereo) [IV], the mortality at 100 ppm in assay [1] (cotton leaf, residual, 3 days) was 80 to 100%; in [2] (setting [15]), less than 50%; in assay [7] (setting [16]), less than 50%; in [3] (in Zea mays), 80 to 100%; in assay [4], less than 50%; in assay [5] (setting [17]), 80 to 100%. For the same compound, the mortality at 100 ppm (in the assay on Myzus persicae (aphids) (setting [18]); in assay [6] (in Gossypium hirsutum); in assay [8]) was 80 to 100% throughout.
On to `CC1(C)C(C=C(F)F)C1C(=O)OCc1ccc(F)c(Cc2ccccc2)c1` (racemic) [III], for which the mortality at 100 ppm in assay [1] (cotton leaf, residual, 3 days) is 80 to 100%; in assay [2] (setting [15]) it was less than 50%; in [7] (setting [16]) it was 50 to 79%; in [3] (in Zea mays) it was 80 to 100%; in assay [4] it was less than 50%; in [5] (setting [17]), 80 to 100%. The mortality at 100 ppm (with Myzus persicae (aphids) (setting [18]); in [6] (in Gossypium hirsutum)) was 80 to 100% in each case.
As for `CC1(C)[C@H](/C=C(\Cl)C(F)(F)F)[C@@H]1C(=O)OCc1ccc(F)c(Cc2ccccc2)c1` (relative stereo) [I], the mortality at 500 ppm in [1] (setting [9]), in [2] (setting [10]), in assay [7] (setting [19]), in assay [3] (in Zea mays), in assay [4] and in assay [5] (setting [13]) was 80 to 100% in each case. For the same compound, the mortality at 500 ppm (in the assay with Myzus persicae (aphids) (setting [14]); in assay [6] (in Gossypium hirsutum)) was 80 to 100% throughout.
Turning to `CC1(C)[C@H](C(=O)OC(C#N)c2ccc(F)c(Cc3ccccc3)c2)[C@@H]1/C=C(\Cl)C(F)(F)F` (some centres unmarked) [VI], the mortality at 100 ppm in [1] (cotton leaf, residual, 3 days) was 80 to 100%; in [2] (setting [15]), less than 50%; in assay [7] (setting [16]), 80 to 100%; in [3] (in Zea mays) it was 80 to 100%; in [4], 80 to 100%; in [5] (setting [17]), 80 to 100%. Further, the mortality at 100 ppm (in the assay on Myzus persicae (aphids) (setting [18]); in [6] (in Gossypium hirsutum); in [8]) was 80 to 100% throughout.
With `CC1(C)[C@H](C(=O)OCc2ccc(F)c(Cc3ccccc3)c2)[C@@H]1/C=C(\Cl)C(F)(F)F` [V], the mortality at 500 ppm (in assay [1] (setting [9]); in [2] (setting [10]); in assay [7] (setting [19]); in assay [3] (in Zea mays); in assay [5] (setting [13]); with Myzus persicae (aphids) (setting [14])) was 80 to 100% throughout. For the same compound, the mortality at 500 ppm in assay [6] (in Gossypium hirsutum) and in assay [8] was 80 to 100% throughout.
Turning to `CC1(C)[C@H](C(=O)OC(C#N)c2ccc(F)c(Cc3ccccc3)c2)[C@@H]1/C=C(\Cl)C(F)(F)F` (relative stereo) [II], the mortality at 500 ppm in assay [1] (setting [9]), in assay [2] (setting [10]), in assay [7] (setting [19]), in [3] (in Zea mays), in assay [4] and in assay [5] (setting [13]) was 80 to 100% in each case. For the same compound, the mortality at 500 ppm (with Myzus persicae (aphids) (setting [14]); in assay [6] (in Gossypium hirsutum)) was 80 to 100% each time.
In the case of `CC1(C)C(C=C(Br)Br)C1C(=O)OCc1ccc(F)c(Cc2ccccc2)c1` (racemic) [X], the mortality at 500 ppm was 80 to 100% in assay [1] (setting [9]); less than 50% in [2] (setting [10]); 80 to 100% in assay [3] (in Zea mays); 80 to 100% in assay [4]; 80 to 100% in assay [5] (setting [13]); 80 to 100% with Myzus persicae (aphids) (setting [14]). The mortality at 500 ppm in assay [6] (in Gossypium hirsutum) was in the range of 80 to 100%.
Turning to `CC(C)(C)c1ncc([C@@H]2[C@@H](C(=O)OCc3ccc(F)c(Cc4ccccc4)c3)C2(C)C)cn1` (relative stereo) [XI], the mortality at 500 ppm in assay [1] (in Gossypium hirsutum) was 80 to 100%; in [2] (in Phaseolus vulgaris), 80 to 100%; in assay [7] it was 80 to 100%; in assay [3] (setting [11]) it was 80 to 100%; in assay [4] (setting [12]) it was less than 50%; in assay [5] it was 50 to 79%. Moreover, the mortality at 500 ppm (with Myzus persicae (aphids) (in Brassica rapa); in assay [6] (setting [9])) was 80 to 100% throughout.
As to `CC1(C)[C@H](C=C(C(F)(F)F)C(F)(F)F)[C@H]1C(=O)OCc1ccc(F)c(Cc2ccccc2)c1` (relative stereo) [IX], the mortality at 500 ppm in assay [1] (setting [9]) was 80 to 100%; in [2] (setting [10]), less than 50%; in assay [7] (setting [19]) it was 80 to 100%; in assay [3] (in Zea mays), 80 to 100%; in assay [4], 80 to 100%; in assay [5] (setting [13]) it was 80 to 100%. The mortality at 500 ppm (in the assay on Myzus persicae (aphids) (setting [14]); in [6] (in Gossypium hirsutum)) was 80 to 100% each time.
As to `CC(C)=CC1C(C(=O)OCc2ccc(F)c(Cc3ccccc3)c2)C1(C)C` (centres unmarked) [VIII], the mortality at 500 ppm in assay [1] (setting [9]) was 80 to 100%; in assay [2] (setting [10]) it was less than 50%; in assay [7] (setting [19]) it was less than 50%; in assay [3] (in Zea mays) it was 80 to 100%; in assay [4], less than 50%; in assay [5] (setting [13]), 80 to 100%. Moreover, the mortality at 500 ppm (in the assay with Myzus persicae (aphids) (setting [14]); in assay [6] (in Gossypium hirsutum)) was 80 to 100% each time.
Take `CC(OC(=O)C1C(C=C(Cl)C(F)(F)F)C1(C)C)c1ccc(F)c(Cc2ccccc2)c1` (centres unmarked) [XIII]: the mortality at 500 ppm (in assay [1] (setting [9]); in assay [7] (setting [19]); in assay [3] (in Zea mays); in assay [4]; in [5] (setting [13]); in the assay with Myzus persicae (aphids) (setting [14])) was 80 to 100% throughout. The mortality at 500 ppm in [6] (in Gossypium hirsutum) and in [8] was 80 to 100% in each case.
